Data published in paper PMC11738990, “A small-molecule TNIK inhibitor targets fibrosis in preclinical and clinical models” (Nature Biotechnology, 2024).
Values joined by “and” are separate entries in the source; they are usually repeats but may differ in a detail not shown here. Equal entries are not always repeated. Where two headings read alike, the source gives them in different places.

Assays:
MRC-5 cells = experiment: TGF-β-induced α-SMA protein expression, western blot; format: cell-based, human; details: TGF-β1 2 ng/ml, 72 h; read-out: IC50, TGF-β-induced α-SMA/GAPDH
Procedure: MRC-5 cells were cultured in a monolayer with DMEM high-glucose medium supplemented with 10% FBS at 37 °C with 5% CO2. Cells were seeded in six-well plates in three replicate wells per condition at a density of 2.5 × 10^5 cells per well and cultured for 24 h. […] Vehicle (2% FBS–DMEM, containing 0.1% DMSO) was added into the blank control group and the model group, and pre-incubation was continued for 2 h. Next, TGF-β1 was added into each well of the administration group and the model group (final concentration in each well was 2 ng ml^−1), and the same volume of vehicle was added into each well of the blank control group for 72 h of incubation (the culture medium was changed once after 48 h of incubation). After incubation, the cells were collected and digested with 0.5% trypsin, protein was extracted and total protein content was determined by the BCA method.
For whole-cell lysates, cells were collected and lysed on ice for 20 min with RIPA buffer with protease and phosphatase inhibitors (cOmplete and PhosSTOP, Roche). The protein concentration of the cell lysates was determined using the BCA Protein Assay Kit. […] Integrated intensity of bands from 16-bit blot images was used for quantitation with the software Image Studio Lite. Protein-quantification data of two independent experiments were calculated and analyzed using GraphPad.

NHDF cells = experiment: Fibronectin and procollagen I in supernatant (ELISA); format: cell-based, human; details: TGF-β 10 ng/ml, 72 h
Procedure: The medium was then replaced with assay medium containing or not containing (control conditions) the test compounds, and TGF-β (10 ng ml^−1) was added or not (unstimulated control). […] Fibronectin and procollagen I contents were measured in the culture supernatants using specific ELISA kits (Takara, MK115 for fibronectin and MK101 for procollagen type I) according to the supplier’s instructions.

C57BL/6 mice [1] = experiment: Unilateral ureteral obstruction (UUO) kidney fibrosis model; details: for Positive area (%), per mouse: Fig 5B-D Individual Values;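 on all read-outs here: mice had the left ureter ligated on day 0, received treatment from day 0 through day 14 and were killed on day 14 for kidney analysis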
Procedure: The surgery took place on two separate days. Mice were divided into two slots based on their body weight before the day of the surgery. On day 0 (day of surgery), UUO surgery was performed after administration of three types of mixed anesthetic agents (medetomidine, midazolam, butorphanol). Mice were shaved at the incision site, the abdomen was cut open, and the left ureter was exteriorized and ligated with 4-0 silk sutures at two points. Finally, the peritoneum and the skin were closed with sutures.
Treatments were applied from day 0 to day 14. And animals were killed on day 14, and blood and tissue samples were collected.
Frozen kidney samples were processed by an alkaline acid hydrolysis method as follows. […] Next, AC buffer (2.2 M acetic acid and 0.48 M citric acid, 400 μl) was added to the samples, followed by centrifugation to collect the supernatant. […] The samples were then mixed with Ehrlich’s solution (400 μl) and heated at 65 °C for 20 min to develop color. After samples were cooled on ice and centrifuged to remove precipitates, the optical density of each supernatant was measured at 560 nm. Hydroxyproline concentrations were calculated from the hydroxyproline standard curve. Kidney hydroxyproline contents were expressed as μg per mg protein, and the amount of protein was determined using the BCA Protein Assay Kit (Thermo Fisher Scientific).
At the end of the UUO study, the left kidney was fixed in Bouin’s solution and embedded in paraffin. Kidney sections were stained using picro-Sirius red solution (Waldeck). To quantify the interstitial fibrosis area, brightfield images in the corticomedullary region were captured using a digital camera (DFC295) at 200-fold magnification, and the positive areas in five fields per section were measured using ImageJ software (National Institute of Health).
Paraffin sections were deparaffinized and hydrophilized with xylene, 100–70% alcohol series and RO water, and then circles were drawn around the kidney sections. […] After washing with PBS, kidney sections were treated with PBS with Tween-20 (PBST), followed by incubation with Block Ace (DS Pharma Biomedical) at room temperature for 10 min. The sections were incubated with the primary antibody (anti-collagen I) at 4 °C overnight. After washing with PBS, kidney sections were treated with PBST, followed by incubation with secondary antibody at room temperature for 30 min. After washing with PBS, kidney sections were fixed with 1% glutaraldehyde solution at room temperature for 1 min. After washing with RO water, kidney sections were treated with PBST and then colored using a chromogenic substrate (Simple Stain DAB, Nichirei Bioscience). After washing with RO water, kidney sections were immersed in an eightfold-diluted hematoxylin solution for 1 min and washed with RO water immediately. […] For scoring of IHC analyses, brightfield images were captured using a digital camera (DFC295) at 200-fold magnification, and the score in one field per section was determined.

C57BL/6 mice [2] = experiment: Bleomycin-induced lung fibrosis model, combination with pirfenidone; format: in vivo, mouse; details: INS018_055 3mpk BID; 3 mg/kg
Procedure: Mice received bleomycin on day 1 at a dose of 0.66 mg per kg (equivalent to 1 U per kg), in a volume of 50 μl by intratracheal administration, or received saline (sham group). On day 7, dosing with the corresponding compounds was started. The vehicle group (group 1) was treated with 0.5% methylcellulose BID. […] On days 5 and 21, lung function measurement was performed. On day 28, all animals were killed, and blood and tissue samples were collected along with BALF.
Lung function was measured according to the HDB standard protocol. Expiratory time, relaxation time, peak expiratory flow and peak inspiratory flow were collected and used to calculate Penh data.
Lung sections were cut at a thickness of 4 μm, dried in an oven for 1 h and stained with M&T using our standard protocol. Briefly, sections were stained with Weigert’s iron hematoxylin working solution for 10 min, stained in Biebrich scarlet–acid fuchsin solution for 10 min, differentiated in phosphomolybdic–phosphotungstic acid solution for 5 min or until the collagen was not red, transferred to aniline blue solution, stained for 1 min and then dedifferentiated in 1% acetic acid solution. Next, sections were dehydrated and coverslipped for subsequent image analysis. For image analysis of collagen deposition, Masson’s trichrome-stained slides were scanned by using Aperio ScanScope Model CS2 (Leica) at ×200 magnification. Images were then opened with HALO. Using the pen tool, the whole left lung section was selected as an annotation layer. The area occupied by blue collagen fibers was measured using the pen tool. The percentage of fibrosis (positive areas) in the selected annotation was then calculated with the program. Fibrosis was expressed as a percentage per lung section.
Sections (4 μm thick) were placed on slides, and, after overnight drying, paraffin was removed with xylene. Next, sections were placed in a graded ethanol series and immersed in distilled water. After heat-induced citrate antigen (pH 6.0) unmasking, sections were immersed in 3% hydrogen peroxide solution for 5 min. […] Next, secondary antibodies conjugated to HRP were added. For image analysis of fibrosis, stained sections were used and scanned with the Aperio CS2 Scanner machine. Images were then opened with HALO. Using the pen tool, the whole left lung section was selected as an annotation layer. The bronchus was excluded in the annotation layer. The area occupied by collagen fibers was measured using the ‘Area Quantification v2.1.3’ module. The percentage of positive areas in the selected annotation was then calculated using the program.

[3] = test system: primary bronchial epithelial cells from healthy donors; experiment: EMT by FN1, high-content analysis; format: cell-based, human; details: three healthy individuals
Procedure: For the measurement of EMT by FN1, on the first day, human primary bronchial epithelial cells were seeded. After 2 d, the medium of the cells was refreshed. […] After 1 h, all cells were treated with 5 ng ml^−1 TGF-β1. On the ninth day (72 h after triggering), cells were fixed with 4% formaldehyde, stained for FN1 and with DAPI and then imaged and quantified via HCA (IN Cell Analyzer 2200, GE Healthcare).
Segmentation and quantification of α-SMA and FN1 immunoreactivity was carried out with an HCA algorithm, with density × area (D × A) output. Data normalization of raw α-SMA or FN1 (D × A) to percent inhibition values was performed on a plate-to-plate basis.
[…]
μp is the average α-SMA or FN1 value of the positive control (TGF-β1 + 1 μM SB525334). μn is the average α-SMA or FN1 value of the vehicle control (TGF-β1 + 0.1% DMSO). Xi is the compound α-SMA or FN1 value. IC50 values for all compounds (if calculable, based on the point of inflection) were calculated with GraphPad Prism using non-linear fit of log (inhibitor) versus response (four parameter).
DAPI fluorescence was applied for HCA-based quantification of the number of imaged cells on a plate-to-plate basis.
Percent remaining cells = (Xi/μn) × 100%
μn is the average number of nuclei of the vehicle control (TGF-β1 + 0.1% DMSO). Xi is the compound number of nuclei.

healthy subjects = experiment: Phase I New Zealand safety (NCT05154240); details: n (%) [E]
[4] = INS018_055 3 mg/kg BID, individual animals, Fig 5C-D, 3 mg/kg
[5] = INS018_055 10 mg/kg BID, individual animals, Fig 5C-D, 10 mg/kg
[6] = INS018_055 30 mg/kg BID, individual animals, Fig 5C-D, 30 mg/kg

SMILES: CC(C)n1cnc(-c2ccc(F)cc2)c1-c1nc(C(=O)Nc2ccc(N3CCN(C)CC3)cc2)c[nH]1 [INS018_055, 2-[4-(4-fluorophenyl)-1-(prop-2-yl)imidazol-5-yl]-N-[4-(4-methylhexahydropyrazin-1-yl)phenyl]-1H-imidazole-4-carboxamide]
- IC50 (MRC-5 cells): 27.1 nM
- IC50 (NHDF cells; read-out: IC50, fibronectin in supernatant): ~135 nM
- IC50 (NHDF cells; read-out: IC50, procollagen I in supernatant): ~232 nM
- Fibrosis area (sirius red positive area) (C57BL/6 mice [1]; [4]): 2.24 and 2.26 and 1.61 and 1.34 and 1.14 and 1.04
- Kidney hydroxyproline (C57BL/6 mice [1]; [4]): 6.42 and 7.24 and 6.97 and 8.63 and 7.89 and 3.86 and 2.76 and 8.85
- Fibrosis area (sirius red positive area) (C57BL/6 mice [1]; [5]): 0.48 and 0.7 and 0.89 and 0.94 and 0.99 and 0.64 and 0.93 and 1.12
- Kidney hydroxyproline (C57BL/6 mice [1]; [5]): 4.39 and 2.86 and 3.32 and 6 and 3.14 and 6.84 and 3.33 and 3
- Collagen Type 1 score (C57BL/6 mice [1]; [6]): 2
- Fibrosis area (sirius red positive area) (C57BL/6 mice [1]; [6]): 0.44 and 0.53 and 0.81 and 0.2 and 0.68 and 0.43 and 0.38 and 0.73
- Kidney hydroxyproline (C57BL/6 mice [1]; [6]): 2.37 and 2.39 and 2.44 and 2.78 and 2.29 and 3.08 and 2.31
- Positive area (%), per mouse (C57BL/6 mice [1]; INS018_055 high dose group, value per mouse (501-508) over 5 photos): 0.43% and 0.38% and 0.73% and 0.44% and 0.53% and 0.81% and 0.20% and 0.68%
- Positive area (%), per mouse (C57BL/6 mice [1]; INS018_055 low dose group, value per mouse (301-308) over 5 photos): 1.34% and 1.14% and 1.04% and 2.24% and 2.26% and 1.61%
- Positive area (%), per mouse (C57BL/6 mice [1]; INS018_055 middle dose group, value per mouse (401-408) over 5 photos): 0.94% and 0.99% and 0.64% and 0.93% and 1.12% and 0.48% and 0.70% and 0.89%
- Modified Ashcroft Score (C57BL/6 mice [2]): 5.75 and 4.5 and 3
- IC50 [3]: 63 nM (2×) and 500 nM
- Any Death (healthy subjects; MAD any dose N=18): 0 [0]
- Any Death (healthy subjects; SAD any dose N=30): 0 [0]
